Data: patent US20180362993A1, “ELICITOR-DERIVED PEPTIDES AND USE THEREOF” (Plant Health Care, Inc., priority 2017, published 2018)
Values joined by “and” are separate entries in the source; they are usually repeats but may differ in a detail not shown here. Equal values may be shown once. Marks after values point to notes of the source that are not given here.

Tests used:
Assay type in all cases: in vivo
[1] = system: soy; experiment: Drought resistance in soy (foliar spray); details: vs untreated control
Protocol: (§1) The effectiveness of peptide treatment in reducing drought stress was assessed in […]. 3.5 inch pots were filled with Sunshine #1 soil (SunGro Horticulture), fertilized with a 20-10-20 mixture. The soil was soaked and drained overnight. Seeds (soy, manually inspected to ensure uniform seed size) were planted at a depth of half inch for germination. Plants were grown in a greenhouse under 16 hour light days at >70° F. and 8 hour dark nights at >65° F. Prior to drought conditions, the plants were well-watered.
When the plants reached the growth stage when first trifoliate expanded, plants were culled to achieve a uniform height (abnormally large and small plants were removed). Plants were then randomly assigned to control (spray without peptide) or treatment (spray with peptide) groups and heights were measured. Peptide was made up in a solution of 0.2 μg/ml or 2μg/ml in distilled water+0.04% Tween-20, and applied as a fine mist from a spray bottle until the solution drips from the leaves. After the peptide solutions were dried, the plants were again randomized in a randomized complete block design. Cyclic drought stress was initiated after the peptide treatment. Plants were subjected to at least three drought cycles of drought stress (3-5 days of withholding water and 1 day irrigated with saturating amount of water) before harvesting.
(§2) The drought test phase ended after 2-3 weeks. At that time, the plant height was again measured and the growth rate was calculated as the difference between this and the previously-recorded height. The above-ground part portions of the plants were harvested and weighed to obtain fresh weight. The above-ground portion was also dried in an oven at 70° C. for 72 hours to obtain dry weight. All calculations were compared with matched untreated control plants.
The drought testing procedure was carried out in soy using a treatment of P12-2, P13-4, P13-5, P13-7, P13-3, P13-14, P13-2, and P13-15 (SEQ ID NOs: 6, 10, 11, 13, 9, 20, 8, and 21). Asterisks indicate statistical significance by P-value (*: P<0.1 and **: P<0.05)

[2] = system: corn; experiment: Drought resistance in corn (foliar spray); details: corn, vs untreated control
Protocol: as §1, with “(either corn or soy,” for “(soy,”, “1” for “half”
When the plants reached the V1 stage, plants were culled to achieve a uniform height (abnormally large and small plants were removed). Plants were then randomly assigned to control (spray without peptide) or treatment (spray with peptide) groups and heights were measured. Peptide was made up in a solution of 0.2 μg/ml or 2μg/ml in distilled water+0.01% Tween-20, and applied as a fine mist from a spray bottle until the solution drips from the leaves. After the peptide solutions were dried, the plants were again randomized in a randomized complete block design. Drought stress was initiated after the peptide treatment. This was caused by maintaining the water level at 25-50% of the maximum capacity for water (capacity was decided as the weight of the pot filled with saturated soil minus the weight of the filled pot prior to adding water).
as §2
The drought testing procedure was carried out in corn using a treatment of P12, P13-10, P13-11, P13-12, P13-14, P13-4, and P13-15 (SEQ ID NOs: 5, 16, 17, 18, 20, 10, and 21). Asterisks indicate statistical significance by P-value (*: P<0.1 and **: P<0.05)

[3] = system: corn; experiment: Drought resistance in seed-coated corn; details: for Drought tolerance activity in corn, result in words: corn seed treatment; for % Change Dry Weight / % Change Fresh Weight: vs mock
Protocol: The effectiveness of peptide treatment in reducing the effects of drought stress was assessed in corn using a seed treatment strategy. This strategy largely mirrors example 2, except that the seeds were coated with a peptide formulation rather than a foliar spray application.
Seeds were first sieved using mesh screens to a uniform size (21-23/64 inches). The seeds were then coated with a mixture of peptide, Unicoat™ seed coat polymer, and a minimal volume of water in a Hege 11 Liquid Seed Treater (Wintersteiger) according to manufacturer recommendations. Seeds were coated with one of the following: (i) 0.12 μg peptide/seed, (ii) […], or (iii) a ‘mock’ treatment that included no peptide. The amount of peptide per seed assumes complete transfer of the peptide to seed surfaces in the seed coating chamber. Losses during coating were not considered.
(§3) 3.5 inch pots were filled (approximately 0.2 L per pot) with Sunshine #1 mix (SunGro Horticulture), fertilized with 14-14-14 N,P,K Osmocote (Everris), and mixed for 20 minutes using a soil mixer M-5. Seeds were planted at a depth of 0.5 inch for germination. The pots were immediately irrigated by submergence then drained after about an hour. For each treatment group, 24 replicate seeds were planted. Plants were grown in a greenhouse under 16 hour light days at ˜75° F. and 8 hour dark nights at ˜65° F. Prior to drought conditions, the plants were well-watered.
Three days after planting, the plants were randomized using a complete block design and subjected to a cyclic drought stress. Drought stress was imposed by withholding water for 2-3 days until the majority of plants were under medium to severe water stress. The severity of the stress was determined by the weight of the pot and visual determination of leaf curling. Once drought stress was attained, the pots were watered to full saturation. Full Saturation (100% pot capacity) is defined as the weight of the pot filled with water-saturated soil minus the weight of the filled pot prior to adding water. Drought stress was imposed for a total of 18 days.
(§4) At the end of the experiment (18 days after initiation of drought stress), the plant was then harvested for fresh and dry weights. Individual plants were cut near the soil surface and weighed immediately (fresh weight). The plants were then placed into labeled brown paper bags and dried in a 70° C. oven for 72 hours. A dry weight was then obtained.
The following calculation was performed on the collected data: Fresh weight at harvest and dry weight at harvest for the plants grown from peptide-treated seeds were expressed as a % change relative to the ‘mock’ treated plants.

[4] = system: tobacco mosaic virus (TMV); experiment: Induction of resistance to tobacco mosaic virus in tobacco (foliar spray); details: for Effectiveness Covered (% decline in TMV lesions vs UTC): covered leaf (systemic response); for Effectiveness Uncovered (% decline in TMV lesions vs UTC): uncovered leaf (local response)
Protocol: Peptides were tested for the induction of resistance to tobacco mosaic virus (TMV) in tobacco. Briefly, three tobacco plants at 6-8 weeks old were selected per group (samples and controls). The bottom-most leaf of the plant was covered and the plant was sprayed with a solution of water (untreated control—UTC), peptide, or Proact (positive control). The spray was applied until the leaves were fully wetted, indicated by liquid dripping from the leaves. The plants were then allowed to dry and the leaf covering was removed.
Three days post-treatment, the previously-covered leaf and a leaf on the opposite side of the plant were then lightly dusted with diatomaceous earth and 20 ul of a 1.7 μg/ml solution of purified tobacco mosaic virus was applied. The TMV solution was then spread across the leaf surface by lightly rubbing solution and the diatomaceous earth across the surface of the leaves. Two minutes after inoculation, the diatomaceous earth was rinsed off the leaves with water. 3 days after TMV inoculation, the leaves were scored based on the number of TMV lesions observed. The leaf was also scored for signs of the hypersensitive response, including yellowing and wilting of the affected leaves.
Effectiveness described in Table 5 refers to the % decline in TMV lesions on treated vs UTC plants. A reduction of TMV on covered leaves indicates a systemic immune response in the plant while reduction on uncovered leaves indicates a local response. Asterisks indicate that the P-value derived from a T-test was <0.05.

[5] = system: soy; experiment: Drought resistance in seed-treated soy; details: for % Change Dry Weight / % Change Fresh Weight: vs mock
Protocol: The effectiveness of peptide treatment in reducing drought stress was assessed in soy using a seed treatment strategy. This strategy largely mirrors examples 3 and 4.
Seeds were first sieved using mesh screens to a uniform size (14-17 mesh). The seeds were then coated with a mixture of peptide and Unicoat™ seed coat polymer in a Hege 11 Liquid Seed Treater (Wintersteiger) according to manufacturer recommendations. […]
as §3
Seven days after germination the heights of the plants were measured. This was determined as the distance between the soil surface and the shoot apical meristems (buds). The plants were randomized using a complete block design and subjected to a cyclic drought stress. Drought stress was imposed by withholding water for 3-4 days until the majority of plants were under medium to severe water stress. The severity of the stress was determined by the weight of the pot and visual determination of loss of turgor in the leaves (drooping). Once drought stress was attained, the pots were watered to full saturation. Full Saturation (100% pot capacity) is defined as the weight of the pot filled with water-saturated soil minus the weight of the filled pot prior to adding water. Drought stress was imposed for a total of 18 days.
as §4, with “the plant above the soil surface was then” for “the plant was then”, “then obtained. The following calculation was performed on the collected data: Fresh weight at harvest, and dry weight at harvest for the peptide-treated plants were expressed as a % change relative to the ‘mock’ treated plants.” for “then obtained.”

[6] = corn seed treatment 0.12 μg/seed
[7] = corn seed treatment 1.05 μg/seed

Row | Sequence | Dry Weight Increase ([1]; foliar spray 2 μg/ml) | Fresh Weight Increase ([1]; foliar spray 2 μg/ml) | Drought tolerance activity in corn, result in words [3] | % Change Dry Weight [3, 6] | % Change Fresh Weight [3, 6] | Dry Weight Increase ([1]; foliar spray 0.2 μg/ml) | Fresh Weight Increase ([1]; foliar spray 0.2 μg/ml) | % Change Dry Weight [3, 7] | % Change Fresh Weight [3, 7] | also measured
1 | GDLQGSGASTQDTSGMSPMEQLMKIFADITQSLFGDQDG (P12-2 peptide) [Peptide P12-2] | 3.55% | 7.83** % | – | – | – | – | – | – | – | –
2 | GQTSGMSPMEQLMKIFADITQSLFG (P13-15 peptide) [Peptide P13-15] | 2.07% | 5.38* % | – | – | – | – | – | – | – | Dry Weight Increase ([2]; foliar spray 0.2 μg/ml): 6.21%; Fresh Weight Increase ([2]; foliar spray 0.2 μg/ml): 2.92%
3 | LEELEELLEIFEEIEEELFEE (P13-7 peptide) [Peptide P13-7] | 4.50* % | 5.80* % | preservation of activity | 4.77** % | 5.6* % | – | – | – | – | –
4 | LSPLEQLMKIFADITQSLFEEEE (P13-5 peptide) [Peptide P13-5] | 4.36% | 9.73** % | supported corn drought tolerance | – | – | 6.93** % | 12.23** % | 5.07* % | 5.66** % | –
5 | MSPMEQLMKIFADITQSLFEEEE (P13-4 peptide) [Peptide P13-4] | – | – | – | – | – | 4.45* % | 7.75** % | – | – | Dry Weight Increase ([2]; foliar spray 2 μg/ml): 0.06%; Fresh Weight Increase ([2]; foliar spray 2 μg/ml): −2.77%
6 | QTGDDSLSGAGQTSGMSPMEQLMKIFADITQSLFG (P13-14 peptide) [Peptide P13-14] | – | – | – | 3.77% | 9.11** % | −3.68** % | −2.86% | 7.92** % | 11.83** % | Dry Weight Increase ([2]; foliar spray 2 μg/ml): 2.48%; Fresh Weight Increase ([2]; foliar spray 2 μg/ml): 4.36* %
7 | QTGDDSLSGAGQTSGMSPMEQLMKIFADITQSLFGDQ (P13-13 peptide) [Peptide P13-13] | – | – | – | – | – | – | – | – | – | Effectiveness Covered (% decline in TMV lesions vs UTC) ([4]; 20 μg/ml spray): 38.5%; Effectiveness Uncovered (% decline in TMV lesions vs UTC) ([4]; 20 μg/ml spray): 36.6%
8 | QTGDDSLSGAGQTSGMSPMEQLMKIFADITQSLFGDQDG (P12 peptide) [Peptide P12] | – | – | – | – | – | – | – | – | – | Effectiveness Covered (% decline in TMV lesions vs UTC) ([4]; 10 μg/ml spray): 66* %; Effectiveness Uncovered (% decline in TMV lesions vs UTC) ([4]; 10 μg/ml spray): 53* %; Dry Weight Increase ([2]; foliar spray 2 μg/ml): 6.28** %; Fresh Weight Increase ([2]; foliar spray 2 μg/ml): 4.87* %
9 | SEEMSPMEQLMKIFADITQSLFEE (P13-36 peptide) [Peptide P13-36] | – | – | supported corn drought tolerance | 5.93** % | 10.60** % | – | – | 7.95** % | 12.38** % | % Change Dry Weight ([5]; soy seed treatment 0.9 μg/seed): −4.78%; % Change Fresh Weight ([5]; soy seed treatment 0.9 μg/seed): 1.46%
10 | SEQEEEMEEMEQLMEIFEEIEQELFE (P13-28 peptide) [Peptide P13-28] | – | – | preservation of activity | 8.52** % | 9.99** % | – | – | 6.04** % | 8.18** % | Result in the seed treated drought study for soy, in words ([5]; soy seed treatment): significant results; % Change Dry Weight ([5]; soy seed treatment 0.9 μg/seed): 10.35** %; % Change Fresh Weight ([5]; soy seed treatment 0.9 μg/seed): 14.35** %
11 | SQEEEMEPMEQLMEIFEEIEQELFG (P13-26 peptide) [Peptide P13-26] | – | – | preservation of activity | 4.74** % | 3.77* % | – | – | 5.92** % | 4.23* % | % Change Dry Weight ([5]; soy seed treatment 0.1 μg/seed): 3.40%; % Change Fresh Weight ([5]; soy seed treatment 0.1 μg/seed): 2.04%
12 | TSGLSPLEQLLKIFADITQSLFG (P13-2 peptide) [Peptide P13-2] | 14.54** % | 15.56** % | – | – | – | 8.70** % | 7.84** % | 0.38% | 3.67% | –
13 | TSGLSPLEQLLKIFAEITQSLFG (P13-3 peptide) [Peptide P13-3] | 2.54% and 6.07** % | 5.90** % and 13.61** % | – | 2.81% | 1.49% | 8.47** % | 11.43** % | – | – | –
